From patent publication US8518715B2, “Bifunctional polyazamacrocyclic chelating agents” (Nordion (Canada) Inc., priority 2006, dated 2013)

What was measured:
Format in all cases: physicochemical
[1] = Effect of [ligand]/[177Lu3+] on the percent complexation
Protocol: (§1) A polyazamacrocyclic ligand ((L)-p-NO2-Bz-PCTA; (D)-p-NO2-Bz-PCTA; (L)-p-NCS-Bz-PCTA; (±)-p-NO2-Bz-DOTA, (±)-NPCTA, (±)-OXO and (L)-p-NO2-Bz-OXO) was combined with a metal ion (^90Y^3+, ^111In^3+, ^177Lu^3+) at room temperature in buffer at a molar ratio of the ligand to the metal ion of 100:1 for kinetic studies, 200:1 for stability studies or at values ranging from 2:1 to 200:1 for the molar ratio studies.
(§2) Complexation studies involving ^90Y^3+ and ^111In^3+ were conducted with 50-100 mM sodium acetate buffer, pH 5.0-7.0, while complexation studies involving ^177Lu^3+ were performed with 50 mM-100 mM sodium acetate buffer, pH 4-5.
(§3) 1 μL samples were taken at 10 minute intervals for kinetic studies, after 60 minutes in experiments studying the effect of the value of [ligand]/[metal ion] on the % complexation of the ligand, and at spaced intervals of 1-3 days for experiments studying the stability of complexes formed using the ligand of the present invention. […] The silica gel paper is cut in half and each half is measured in a gamma well counter. […] Each result shown in FIGS. 4-9 is the average of three separate trials.

[2] = Kinetics of complexation of polyazamacrocyclic ligand with 111In3+; conditions: ^111In^3+; for initial rate / kinetics of complexation (in words): ligand:metal 100:1, room temperature
Protocol: as §1, §2, §3

[3] = Kinetics of complexation of polyazamacrocyclic ligand with 177Lu3+; conditions: ^177Lu^3+; for percent complexation of metal ion (in words) / time after which the maximum percent of complexation was observed: ligand:metal 100:1; for initial rate / kinetics of complexation (in words): ligand:metal 100:1, room temperature; for percent complexation after 10 minutes: ligand:metal 100:1, 10 minutes
Protocol: as §1, §2, §3

[4] = Kinetics of complexation of polyazamacrocyclic ligand with 90Y3+; conditions: ^90Y^3+; for percent complexation of metal ion (in words): ligand:metal 100:1; for initial rate / kinetics of complexation (in words): ligand:metal 100:1, room temperature
Protocol: as §1, §2, §3

[5] = Effect of [ligand]/[90Y3+] on the percent complexation
Protocol: as §1, §2, §3

[6] = Effect of [ligand]/[111In3+] on the percent complexation
Protocol: as §1, §2, §3

[7] = molar ratio of ligand/^111In^3+ of 5:1, after 60 minutes

SMILES	percent complexation of metal ion (in words) [3]	percent complexation of metal ion (in words) [4]	percent complexation [6, 7]	percent complexation after 10 minutes [3]	initial rate / kinetics of complexation (in words) [3]	initial rate / kinetics of complexation (in words) [4]	initial rate / kinetics of complexation (in words) [2]	time after which the maximum percent of complexation was observed [3]	also measured
O=C(O)CN1CCN(CC(=O)O)C[C@H](Cc2ccc([N+](=O)[O-])cc2)N(CC(=O)O)Cc2cccc(n2)C1 [(L)-p-NO2-Bz-PCTA, 2,2′,2″-((4S)-4-(4-nitrobenzyl)-3,6,9,15-tetraazabicyclo[9.3.1]pentadeca-1(15),11,13-triene-3,6,9-triyl)triacetic acid]	highest	highest			fastest	fastest			percent complexation ([1]; molar ratio of ligand/^177Lu^3+ of 5:1, after 60 minutes): ~95%; percent complexation after 10 minutes ([2]; ligand:metal 100:1, 10 minutes): ~95%; percent complexation after 10 minutes ([4]; ligand:metal 100:1, 10 minutes): 95%
COc1ccc([N+](=O)[O-])cc1C(C(=O)O)N1CCN(CC(=O)O)Cc2cccc(n2)CN(CC(=O)O)CC1 (racemic) [(±)-NPCTA, 2,2′-(6-(carboxy(2-methoxy-5-nitrophenyl)methyl)-3,6,9,15-tetraazabicyclo[9.3.1]pentadeca-1(15),11,13-triene-3,9-diyl)diacetic acid]			~76%		relatively slower	relatively slower	relatively slower	50 min	percent complexation ([1]; molar ratio of ligand/^177Lu^3+ of greater than 20:1, after 60 minutes): < 95%; percent complexation ([5]; molar ratio of ligand/^90Y^3+ of greater than 20:1, after 60 minutes): < 90%
O=C(O)CN1CCOCCN(CC(=O)O)[C@@H](Cc2ccc([N+](=O)[O-])cc2)CN(CC(=O)O)CC1 [(L)-p-NO2-Bz-OXO, (S)-2,2′,2″-(5-(4-nitrobenzyl)-1-oxa-4,7,10-triazacyclododecane-4,7,10-triyl)triacetic acid]	highest	highest			fastest		fastest		
O=C(O)CN1CCN(CC(=O)O)C[C@@H](Cc2ccc([N+](=O)[O-])cc2)N(CC(=O)O)Cc2cccc(n2)C1 [(D)-p-NO2-Bz-PCTA, 2,2′,2″-((4R)-4-(4-nitrobenzyl)-3,6,9,15-tetraazabicyclo[9.3.1]pentadeca-1(15),11,13-triene-3,6,9-triyl)triacetic acid]				~91%					percent complexation ([5]; molar ratio of ligand/^90Y^3+ of 10:1, after 60 minutes): ~95%; percent complexation ([6]; molar ratio of ligand/^111In^3+ of 10:1, after 60 minutes): ~95%

Continued, in another order:

percent complexation of metal ion (in words) [3]	percent complexation of metal ion (in words) [4]	percent complexation [6, 7]	percent complexation after 10 minutes [3]	SMILES	initial rate / kinetics of complexation (in words) [3]	initial rate / kinetics of complexation (in words) [4]	initial rate / kinetics of complexation (in words) [2]	time after which the maximum percent of complexation was observed [3]	also measured
highest	highest		~95%	O=C(O)CN1CCOCCN(CC(=O)O)CCN(CC(=O)O)CC1 (racemic) [(±)-OXO, 2,2′,2″-(1-oxa-4,7,10-triazacyclododecane-4,7,10-triyl)triacetic acid]			fastest		
highest	highest	~94%	~95%	O=C(O)CN1CCN(CC(=O)O)CCN(CC(=O)O)C(Cc2ccc([N+](=O)[O-])cc2)CN(CC(=O)O)CC1 (racemic) [(±)-p-NO2-Bz-DOTA, 2,2′,2″,2′″-(2-(4-nitrobenzyl)-1,4,7,10-tetraazacyclododecane-1,4,7,10-tetrayl)tetraacetic acid]				40 min	maximum values of complexation after 40 minutes ([2]; ligand:metal 100:1, after 40 minutes): ~89%; percent complexation ([6]; molar ratio of ligand/^111In^3+ of greater than 20:1, after 60 minutes): ≤ 95%
